Data as given in patent publication US6376710B2, “Amidine compounds and their use as pesticides” (Sumitomo Chemical Co., Ltd., priority 2000, dated 2002).
Like-named read-outs stand apart in the source and are kept apart here.

Tests used:
Type in all cases: in vivo
[1] = system: German cockroach (Blattella germanica); experiment: Test Example 2: treated filter paper with sucrose bait, German cockroach male adults, mortality; conditions: 144 h
[2] = system: house fly (Musca domeestica); experiment: Test Example 3: treated filter paper with sucrose bait, house fly female adults, mortality; conditions: 24 h
Experimental: On the bottom of a polyethylene cup of 5.5 cm in diameter was placed a filter paper of the same size, to which a water dilution (500 ppm) of each of the formulations obtained from present compounds 1, 2, 3, 4, 5, 6, 7, 8, 9, 10, 11, 12, 13, 14, 15, 16, 17, 18, 19, 20, 21, 25, 26, 27, 28, 29, 32, 33, 34, 35, 36, 37, 38, 39, 40, 41, 42, 43, 44, 45, 47, 51, 52, 53, 54, 55, 60, and 61 according to Formulation Example 1 was added dropwise in an amount of 0.7 ml, and the cup was uniformly charged with about 30 mg of sucrose as a bait. Ten female adults of house fly (Musca domeestica) were set free in each cup, which was then kept covered. After 1 day, their survival was examined to determine the mortality.

[3] = system: common mosquito (Culex pipiens pallens); experiment: Test Example 4: treated water, common mosquito final-instar larvae, mortality; conditions: 192 h
[4] = water dilution (500 ppm) of flowable (Formulation Example 1), 0.7 ml on filter paper, male adults, after 6 days, read-out: mortality
[5] = water dilution (500 ppm) of flowable (Formulation Example 1), 0.7 ml on filter paper, female adults, after 1 day, read-out: mortality
[6] = active ingredient 3.5 ppm in ion-exchanged water (0.7 ml of 500 ppm dilution), final-instar larvae, after 8 days, read-out: mortality

NC(=Nc1c(Cl)cc(C(F)(F)F)cc1[N+](=O)[O-])C(F)(F)C(F)(F)C(F)(F)F [present compound 32, N-(2-Chloro-6-nitro-4-trifluoromethylphenyl)-2,2,3,3,4,4,4-heptafluorobutyramidine]
100%: mortality at 500 µg/mL [1, 4] | mortality at 500 µg/mL [2, 5] | mortality at 3.5 ppm [3, 6]

NC(=Nc1c([N+](=O)[O-])cc(C(F)(F)F)cc1[N+](=O)[O-])C(F)(Cl)Cl [present compound 34, 2,2-Dichloro-N-(2,6-dinitro-4-trifluoromethylphenyl)-2-fluoroacetamidine]
100%: mortality at 500 µg/mL [1] | mortality at 500 µg/mL [2] | mortality at 3.5 ppm [3]

NC(=Nc1c([N+](=O)[O-])cc(C(F)(F)F)cc1[N+](=O)[O-])C(F)(F)C(F)(F)Cl [present compound 35, 3-Chloro-N-(2,6-dinitro-4-trifluoromethylphenyl)-2,2,3,3-tetrafluoropropionamidine]
100%: mortality at 500 µg/mL [1] | mortality at 500 µg/mL [2] | mortality at 3.5 ppm [3]

CC(F)(F)C(N)=Nc1c([N+](=O)[O-])cc(C(F)(F)F)cc1[N+](=O)[O-] [present compound 36, 2,2-Difluoro-N-(2,6-dinitro-4-trifluoromethylphenyl)propionamidine]
100%: mortality at 500 µg/mL [1] | mortality at 500 µg/mL [2] | mortality at 3.5 ppm [3]

NC(=Nc1c([N+](=O)[O-])cc(C(F)(F)F)cc1[N+](=O)[O-])C(F)(F)C(F)(Cl)C(F)(F)Cl (stereo not drawn) [present compound 37, 3,4-Dichloro-N-(2,6-dinitro-4-trifluoromethylphenyl)-2,2,3,4,4-pentafluorobutyramidine]
100%: mortality at 500 µg/mL [1] | mortality at 500 µg/mL [2] | mortality at 3.5 ppm [3]

NC(=Nc1c([N+](=O)[O-])cc(C(F)(F)F)cc1[N+](=O)[O-])C(F)(F)C(F)(F)C(F)(F)C(F)F [present compound 38, N-(2,6-Dinitro-4-trifluoromethylphenyl)-2,2,3,3,4,4,5,5-octafluoropentanamidine]
100%: mortality at 500 µg/mL [1] | mortality at 500 µg/mL [2] | mortality at 3.5 ppm [3]

NC(=Nc1c([N+](=O)[O-])cc(C(F)(F)F)cc1[N+](=O)[O-])C(F)(F)C(F)(F)Br [present compound 39, 3-Bromo-N-(2,6-dinitro-4-trifluoromethylphenyl)-2,2,3,3-tetrafluoropropionamidine]
100%: mortality at 500 µg/mL [1] | mortality at 500 µg/mL [2] | mortality at 3.5 ppm [3]

NC(=Nc1c([N+](=O)[O-])cc(C(F)(F)F)cc1[N+](=O)[O-])C(F)(Cl)C(F)(F)Br (stereo not drawn) [present compound 40, 3-Bromo-2-chloro-N-(2,6-dinitro-4-trifluoromethylphenyl)-2,3,3-trifluoropropionamidine]
100%: mortality at 500 µg/mL [1] | mortality at 500 µg/mL [2] | mortality at 3.5 ppm [3]

COC(F)(C(N)=Nc1c([N+](=O)[O-])cc(C(F)(F)F)cc1[N+](=O)[O-])C(F)(F)F (stereo not drawn) [present compound 41, N-(2,6-Dinitro-4-trifluoromethylphenyl)-2-methoxy-2,3,3,3-tetrafluoropropionamidine]
100%: mortality at 500 µg/mL [1] | mortality at 500 µg/mL [2] | mortality at 3.5 ppm [3]

NC(=Nc1c([N+](=O)[O-])cc(C(F)(F)C(F)(F)F)cc1[N+](=O)[O-])C(F)(F)C(F)(F)C(F)(F)F [present compound 42, N-(2,6-Dinitro-4-pentafluoroethylphenyl)-2,2,3,3,4,4,4-heptafluorobutyramidine]
100%: mortality at 500 µg/mL [1] | mortality at 500 µg/mL [2] | mortality at 3.5 ppm [3]

NC(=Nc1c([N+](=O)[O-])cc(C(F)(F)C(F)(F)F)cc1[N+](=O)[O-])C(F)(F)C(F)(F)F [present compound 43, N-(2,6-Dinitro-4-pentafluoroethylphenyl)-2,2,3,3,3-pentafluoropropionamidine]
100%: mortality at 500 µg/mL [1] | mortality at 500 µg/mL [2] | mortality at 3.5 ppm [3]

NC(=Nc1c([N+](=O)[O-])cc(C(F)(F)F)cc1[N+](=O)[O-])C(F)(F)C(F)C(F)(F)F (stereo not drawn) [present compound 44, N-(2,6-Dinitro-4-trifluoromethylphenyl)-2,2,3,4,4,4-hexafluorobutyramidine]
100%: mortality at 500 µg/mL [1] | mortality at 500 µg/mL [2] | mortality at 3.5 ppm [3]

NC(=Nc1c([N+](=O)[O-])cc(OC(F)(F)F)cc1[N+](=O)[O-])C(F)(F)C(F)(F)C(F)(F)F [present compound 45, N-(2,6-Dinitro-4-trifluoromethoxyphenyl)-2,2,3,3,4,4,4-heptafluorobutyramidine]
100%: mortality at 500 µg/mL [1] | mortality at 500 µg/mL [2] | mortality at 3.5 ppm [3]

NC(=Nc1c([N+](=O)[O-])cc(C(F)(F)C(F)(F)C(F)(F)F)cc1[N+](=O)[O-])C(F)(F)C(F)(F)F [present compound 47, N-(2,6-Dinitro-4-heptafluoropropylphenyl)-2,2,3,3,3-pentafluoropropionamidine]
100%: mortality at 500 µg/mL [1] | mortality at 500 µg/mL [2] | mortality at 3.5 ppm [3]

CSC(F)(F)C(N)=Nc1c([N+](=O)[O-])cc(C(F)(F)F)cc1[N+](=O)[O-] [present compound 51, N-(2,6-Dinitro-4-trifluoromethylphenyl)-2,2-difluoro-2-methylthioacetamidine]
100%: mortality at 500 µg/mL [1] | mortality at 500 µg/mL [2] | mortality at 3.5 ppm [3]

CN(C)C(=Nc1c(Cl)cc(C(F)(F)F)cc1Cl)C(F)(F)C(F)(F)F [present compound 53, N′-(2,6-Dichloro-4-trifluoromethylphenyl)-2,2,3,3,3-pentafluoro-N,N-dimethylpropionamidine]
100%: mortality at 500 µg/mL [1] | mortality at 500 µg/mL [2] | mortality at 3.5 ppm [3]

CN(C)C(=Nc1c(Cl)cc(C(F)(F)F)cc1Cl)C(F)(F)Cl [present compound 54, 2-Chloro-N′-(2,6-dichloro-4-trifluoromethylphenyl)-2,2-difluoro-N,N-dimethylacetamidine]
100%: mortality at 500 µg/mL [1] | mortality at 500 µg/mL [2] | mortality at 3.5 ppm [3]

CNC(=Nc1c(Cl)cc(C(F)(F)F)cc1Cl)C(F)(F)F [present compound 55, N′-(2,6-Dichloro-4-trifluoromethylphenyl)-2,2,2-trifluoro-N-methylacetamidine]
100%: mortality at 500 µg/mL [1] | mortality at 500 µg/mL [2] | mortality at 3.5 ppm [3]

COC(=O)NC(=Nc1c(Cl)cc(C(F)(F)F)cc1Cl)C(F)(F)C(F)(F)F [present compound 60, [1-(2,6-dichloro-4-trifluoromethylphenylimino)-2,2,3,3,3-pentafluoropropyl]carbamic acid methyl ester]
100%: mortality at 500 µg/mL [1, 4] | mortality at 500 µg/mL [2, 5] | mortality at 3.5 ppm [3, 6]

CC(=O)NC(=Nc1c(Cl)cc(C(F)(F)F)cc1Cl)C(F)(F)C(F)(F)F [present compound 61, N-[1-(2,6-dichloro-4-trifluoromethylphenylimino)-2,2,3,3,3-pentafluoropropyl]-acetamide]
100%: mortality at 500 µg/mL [1] | mortality at 500 µg/mL [2] | mortality at 3.5 ppm [3]
